Measured values published in ChEMBL document CHEMBL5465560, “Selectivity Literature for EUbOPEN Chemogenomic Library” (2024).

Columns and labels:
[1] = target: Bone morphogenetic protein receptor type-1A (Homo sapiens, UniProt P36894); assay: Selectivity interaction (Ambit KINOMEscan and KiNATiv profiling in Jurkat cells) EUB0000090b BMPR1A; format: cell-based; conditions: at 1 µM
[2] = target: T1, Inhibitor of nuclear factor kappa-B kinase subunit epsilon (Homo sapiens) (UniProt Q14164); assay: Selectivity interaction (ActivX KiNativ screen (kinase selectivity in THP-1 cell lysates)) EUB0000639a IKBKE; format: subcellular; conditions: lysate, at 0.2 µM
T1 sequence (whole entry): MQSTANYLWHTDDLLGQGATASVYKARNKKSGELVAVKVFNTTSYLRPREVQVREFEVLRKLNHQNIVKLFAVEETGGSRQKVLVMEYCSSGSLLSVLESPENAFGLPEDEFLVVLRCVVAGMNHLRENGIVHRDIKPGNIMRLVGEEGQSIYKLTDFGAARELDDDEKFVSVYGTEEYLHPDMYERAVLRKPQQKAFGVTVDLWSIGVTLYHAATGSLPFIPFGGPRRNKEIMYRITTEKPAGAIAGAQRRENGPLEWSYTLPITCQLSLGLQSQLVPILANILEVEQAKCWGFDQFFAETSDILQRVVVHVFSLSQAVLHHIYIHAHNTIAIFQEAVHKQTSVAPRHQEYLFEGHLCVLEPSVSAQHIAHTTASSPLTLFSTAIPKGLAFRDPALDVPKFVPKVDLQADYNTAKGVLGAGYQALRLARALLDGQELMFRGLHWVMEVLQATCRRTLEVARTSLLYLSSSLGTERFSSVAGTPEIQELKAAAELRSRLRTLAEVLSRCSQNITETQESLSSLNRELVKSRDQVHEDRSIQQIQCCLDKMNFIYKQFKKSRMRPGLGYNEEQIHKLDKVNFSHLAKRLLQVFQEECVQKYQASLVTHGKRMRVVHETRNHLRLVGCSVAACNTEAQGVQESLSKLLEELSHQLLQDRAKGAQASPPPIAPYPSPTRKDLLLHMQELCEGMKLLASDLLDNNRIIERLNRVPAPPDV

[3] = target: Serine/threonine-protein kinase PLK3 (Homo sapiens, UniProt Q9H4B4); assay: Selectivity interaction (KinomeScan (DiscoverX)) EUB0001619a PLK3; conditions: at 1 µM
[4] = target: Dual specificity mitogen-activated protein kinase kinase 1 (Homo sapiens, UniProt Q02750); assay: Selectivity interaction (ActivX KiNativ screen (ex vivo kinase selectivity in human PBMCs)) EUB0001619a MAP2K1; format: cell-based; conditions: PBMC, at 1 µM
[5] = target: T2, Dual serine/threonine and tyrosine protein kinase (Homo sapiens) (UniProt Q6XUX3); assay: Selectivity interaction (KinomeScan (DiscoverX)) EUB0001619a DSTYK; conditions: at 1 µM
T2 sequence (whole entry): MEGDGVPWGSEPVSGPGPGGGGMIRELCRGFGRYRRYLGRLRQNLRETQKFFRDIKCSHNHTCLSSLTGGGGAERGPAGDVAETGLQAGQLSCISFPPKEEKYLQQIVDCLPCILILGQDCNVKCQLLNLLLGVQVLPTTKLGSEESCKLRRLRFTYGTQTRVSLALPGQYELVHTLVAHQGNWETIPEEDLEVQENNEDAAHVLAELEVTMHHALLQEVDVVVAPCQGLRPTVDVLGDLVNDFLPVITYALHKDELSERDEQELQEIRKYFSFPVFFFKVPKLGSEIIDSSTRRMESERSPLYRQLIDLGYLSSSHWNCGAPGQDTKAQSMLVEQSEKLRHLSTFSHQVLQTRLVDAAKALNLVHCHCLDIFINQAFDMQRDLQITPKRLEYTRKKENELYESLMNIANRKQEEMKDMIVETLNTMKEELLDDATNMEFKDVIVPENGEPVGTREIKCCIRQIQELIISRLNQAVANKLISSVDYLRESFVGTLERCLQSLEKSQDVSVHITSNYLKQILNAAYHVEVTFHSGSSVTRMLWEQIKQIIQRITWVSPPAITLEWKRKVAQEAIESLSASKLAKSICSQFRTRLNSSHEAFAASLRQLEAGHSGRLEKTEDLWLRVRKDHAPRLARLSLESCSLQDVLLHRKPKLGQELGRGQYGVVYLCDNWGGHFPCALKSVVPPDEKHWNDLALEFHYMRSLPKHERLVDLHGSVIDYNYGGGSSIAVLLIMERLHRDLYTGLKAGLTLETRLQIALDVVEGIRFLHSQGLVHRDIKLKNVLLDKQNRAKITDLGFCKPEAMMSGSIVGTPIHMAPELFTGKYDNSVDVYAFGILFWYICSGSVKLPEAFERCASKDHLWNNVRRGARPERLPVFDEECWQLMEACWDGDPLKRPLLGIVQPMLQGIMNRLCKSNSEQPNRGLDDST

[6] = target: T3, Ephrin type-A receptor 6 (Homo sapiens) (UniProt Q9UF33); assay: Selectivity interaction (KinomeScan (DiscoverX)) EUB0000666a EPHA6; conditions: at 10 µM
T3 sequence (whole entry): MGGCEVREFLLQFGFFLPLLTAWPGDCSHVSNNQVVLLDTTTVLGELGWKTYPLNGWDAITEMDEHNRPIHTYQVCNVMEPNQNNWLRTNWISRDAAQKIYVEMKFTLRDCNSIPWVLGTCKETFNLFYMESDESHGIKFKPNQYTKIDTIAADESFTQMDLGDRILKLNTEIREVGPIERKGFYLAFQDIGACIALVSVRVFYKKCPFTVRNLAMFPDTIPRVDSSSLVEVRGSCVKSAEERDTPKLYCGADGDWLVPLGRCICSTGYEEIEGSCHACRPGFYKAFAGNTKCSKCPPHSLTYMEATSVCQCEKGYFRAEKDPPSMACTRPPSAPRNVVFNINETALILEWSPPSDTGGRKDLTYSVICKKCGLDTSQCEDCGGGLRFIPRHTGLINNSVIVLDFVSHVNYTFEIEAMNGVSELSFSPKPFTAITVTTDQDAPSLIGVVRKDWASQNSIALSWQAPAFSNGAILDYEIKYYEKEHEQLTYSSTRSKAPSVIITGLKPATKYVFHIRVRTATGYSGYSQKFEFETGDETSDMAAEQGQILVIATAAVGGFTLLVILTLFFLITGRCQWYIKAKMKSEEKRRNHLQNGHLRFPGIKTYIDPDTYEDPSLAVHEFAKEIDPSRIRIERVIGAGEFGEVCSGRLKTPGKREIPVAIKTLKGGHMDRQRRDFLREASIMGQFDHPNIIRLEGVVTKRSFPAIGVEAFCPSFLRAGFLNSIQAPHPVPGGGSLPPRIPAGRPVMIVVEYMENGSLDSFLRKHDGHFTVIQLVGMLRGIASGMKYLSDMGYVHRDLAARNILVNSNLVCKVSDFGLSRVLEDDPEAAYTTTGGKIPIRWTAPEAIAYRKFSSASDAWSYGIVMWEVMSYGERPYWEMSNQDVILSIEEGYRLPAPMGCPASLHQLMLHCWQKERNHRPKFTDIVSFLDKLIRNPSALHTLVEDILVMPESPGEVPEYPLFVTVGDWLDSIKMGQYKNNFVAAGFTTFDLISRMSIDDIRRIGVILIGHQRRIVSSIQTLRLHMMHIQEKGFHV

Bone morphogenetic protein receptor type-1A, sequence (P36894 whole entry): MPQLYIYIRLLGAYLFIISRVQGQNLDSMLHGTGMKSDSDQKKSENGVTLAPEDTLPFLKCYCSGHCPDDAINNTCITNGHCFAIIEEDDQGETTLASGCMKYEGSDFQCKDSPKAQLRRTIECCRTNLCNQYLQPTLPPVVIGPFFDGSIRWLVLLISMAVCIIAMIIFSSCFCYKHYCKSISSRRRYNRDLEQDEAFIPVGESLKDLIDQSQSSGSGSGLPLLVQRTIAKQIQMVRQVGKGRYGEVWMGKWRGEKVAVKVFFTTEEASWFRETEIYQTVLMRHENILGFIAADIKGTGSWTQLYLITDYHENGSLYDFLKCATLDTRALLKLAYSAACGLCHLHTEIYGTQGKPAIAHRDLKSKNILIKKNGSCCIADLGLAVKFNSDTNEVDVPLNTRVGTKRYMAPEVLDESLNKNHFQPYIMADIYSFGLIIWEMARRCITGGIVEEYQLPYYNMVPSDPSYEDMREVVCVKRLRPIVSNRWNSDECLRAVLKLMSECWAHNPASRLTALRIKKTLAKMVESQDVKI
Dual specificity mitogen-activated protein kinase kinase 1, sequence (Q02750 whole entry): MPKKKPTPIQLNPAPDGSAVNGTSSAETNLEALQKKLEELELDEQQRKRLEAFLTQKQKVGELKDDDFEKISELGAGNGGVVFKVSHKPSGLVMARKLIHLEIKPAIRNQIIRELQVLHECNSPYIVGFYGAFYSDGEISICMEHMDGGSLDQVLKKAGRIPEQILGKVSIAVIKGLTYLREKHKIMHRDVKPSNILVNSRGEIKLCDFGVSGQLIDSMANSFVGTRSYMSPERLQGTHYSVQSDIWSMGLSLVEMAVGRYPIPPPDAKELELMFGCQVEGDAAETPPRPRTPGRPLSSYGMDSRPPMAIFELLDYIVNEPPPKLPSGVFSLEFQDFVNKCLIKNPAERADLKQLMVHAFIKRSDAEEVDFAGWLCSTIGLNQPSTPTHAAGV
Serine/threonine-protein kinase PLK3, sequence (Q9H4B4 whole entry, looked up): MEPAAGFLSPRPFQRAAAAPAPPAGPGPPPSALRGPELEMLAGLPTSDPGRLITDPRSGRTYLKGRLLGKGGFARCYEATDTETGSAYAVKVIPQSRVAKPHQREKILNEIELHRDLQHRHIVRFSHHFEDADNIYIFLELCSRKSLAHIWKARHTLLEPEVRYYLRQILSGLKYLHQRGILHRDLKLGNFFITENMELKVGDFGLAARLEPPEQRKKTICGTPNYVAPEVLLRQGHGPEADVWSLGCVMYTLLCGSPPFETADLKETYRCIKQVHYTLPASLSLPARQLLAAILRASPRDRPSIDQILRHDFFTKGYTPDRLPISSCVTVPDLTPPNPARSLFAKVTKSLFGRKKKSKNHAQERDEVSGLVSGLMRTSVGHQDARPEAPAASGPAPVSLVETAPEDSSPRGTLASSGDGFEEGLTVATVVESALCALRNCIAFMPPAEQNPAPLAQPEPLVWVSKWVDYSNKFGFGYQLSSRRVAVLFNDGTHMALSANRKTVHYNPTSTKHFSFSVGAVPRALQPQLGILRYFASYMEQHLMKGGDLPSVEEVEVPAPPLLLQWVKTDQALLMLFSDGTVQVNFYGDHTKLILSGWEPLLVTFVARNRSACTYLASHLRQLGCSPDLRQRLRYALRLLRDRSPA

`CN(C)C/C=C/C(=O)Nc1ccc(C(=O)N2CCCC(Nc3ncc(Cl)c(-c4c[nH]c5ccccc45)n3)C2)cc1` (stereo unspecified) was tested. Which % of control [1] did it give?
The % of control was 100%.

How did the % of inhibition [2] turn out when `CC[C@@H]1[C@H](F)C(=O)N[C@@H]1COc1nccc2cc(C(N)=O)c(OC)cc12` [ZIMLOVISERTIB] was run?
Its % of inhibition is -29.9%.

How did the % of control [3] turn out when `N#Cc1cccc(-c2c[nH]c3ncnc(N4CCOCC4)c23)c1` was run?
The % of control was 100%.

And the % of inhibition [4]?
The % of inhibition was 6%.

What about the % of control [5] of the same compound?
The % of control was 91%.

With `O=C(NOC[C@H](O)CO)c1ccc(F)c(F)c1Nc1ccc(I)cc1F` as the compound, how does the % of control [6] read?
The % of control was 94%.
